We go through 19 compounds from patent US11230526B1, “Cylcoalkenyl derivatives useful as agonists of the GPR120 and/or GPR40 receptors” (Janssen Pharmaceutica NV, priority 2018, dated 2022).

pEC50: −log10 of the molar value.

What is called pEC50 is the negative decadic logarithm of the EC50, by convention in mol/L.

Holding throughout (assay type): cell-based
Assay [1] concerns the target T1, human GPR40 (Homo sapiens, UniProt O14842).
T1 construct: expressed in transfected cells
Kind of assay: GPR40 calcium flux assay, human GPR40. As to conditions: HEK293 cells stably expressing GPR40; table does not say human or rat. An outline of the steps:
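Cells preincubated 1 h at 37° C. in HBSS, 20 mM HEPES, 0.1% BSA, then Fluo 8 calcium dye 30 min at 37° C. and 15 min at room temperature.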
Background: A change in cytosolic calcium serves as a functional read-out for many receptors and channels.

Assay [2] addresses T2, Human GPR120 short form (Homo sapiens, UniProt Q5NUL3).
T2 construct: expressed in transfected cells
T2 sequence (Q5NUL3 1-361): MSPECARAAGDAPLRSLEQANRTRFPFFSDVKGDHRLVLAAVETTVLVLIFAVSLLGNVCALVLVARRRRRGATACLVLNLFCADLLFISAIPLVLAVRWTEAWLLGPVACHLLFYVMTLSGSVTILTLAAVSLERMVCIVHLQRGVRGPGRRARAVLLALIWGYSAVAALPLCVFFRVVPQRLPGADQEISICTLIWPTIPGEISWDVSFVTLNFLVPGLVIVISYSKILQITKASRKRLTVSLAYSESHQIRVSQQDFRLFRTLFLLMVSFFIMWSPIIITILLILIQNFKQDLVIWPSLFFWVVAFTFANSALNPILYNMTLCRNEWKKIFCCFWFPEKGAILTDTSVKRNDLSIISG
The experiment in a line: Human GPR120 calcium flux assay, Procedure Calcium B (4200 cells/well). An outline of the steps:
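Agonist EC50 came from a four-parameter fit of RFU (Fmax−Fmin) read over 300 s on FLIPR. Cells were HEK293 stably transfected with human GPR120 (NM_001195755.1) at 4200 per well, serum-starved 1 h and loaded with Fluo-4 NW dye with probenecid before ligand addition.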

The target of assay [3] is T3, long form of human GPR120 (Homo sapiens, UniProt Q5NUL3).
T3 construct: host or cells: PathHunter CHO-K1 GPR120 β-Arrestin Cell Line
The experiment in a line: Human GPR120 DiscoveRx PathHunter Beta-Arrestin assay, Procedure β-arrestin A. The source says:
Human GPR120 DiscoveRx PathHunter® Beta-Arrestin Assay Assay Principle:
The binding of an agonist (medium/long chain fatty acids or small molecule agonists) to the G-protein-coupled receptor GPR120 activates phospholipase C, leading to release of intracellular Ca^+2 through the generation of inositol 1,4,5-trisphosphate (InsP3 or IP3). GPR120 activation can also trigger intracellular signaling via recruitment of Beta-Arrestin. In the present method, agonist-induced activation of the human GPR120 receptor is monitored through the use of PathHunter® CHO-K1 GPR120 Beta-Arrestin Cell Line engineered by DiscoveRx, as detailed below. The cell lines are designed to co-express both the ProLink/Enzyme Donor (PK)-tagged GPCR and the Enzyme […] (EA)-tagged Beta-Arrestin fusion proteins. Upon GPR120 receptor stimulation/activation, the EA-tagged Beta-Arrestin portion is translocated to the tagged receptor, where the two enzyme fragments are brought within close proximity. Under these conditions, these fragments can interact and form an active Beta-gal enzyme complex through Enzyme Fragment Complementation (EFC). This active Beta-gal complex can enzymatically hydrolyse the substrate to produce a detectable light signal; therefore, activation as a function of agonist concentration can be expressed as an EC50 value to determine relative compound activities. This in vitro assay therefore serves to assess compound agonist activity of the GPR120.
In Procedure β-arrestin A, the cell used were PathHunter® CHO-K1 GPR120 β-Arrestin Cell Line, expressing the long form of human GPR120 (Genbank accession number NM_181745), with 3000 cells per well.
The selected CHO-K1 GPR120 β-Arrestin cells were cultured in Ham's F12 media supplemented with 10% fetal bovine serum (FBS), 1% Glutamine, 1×p/s, 800 μg/mL G418 and 300 μg/mL Hygromycin B (for selection). Cell stocks were maintained and grown in a sub-confluent state using standard cell culture procedures. The day before the experiment, the cells were harvested with non-enzymatic cell dissociation buffer and re-suspended in complete growth media at the desired concentration. A Corning 384-plate was then seeded with the proper number of cells in a volume of 25 μL, per well. The seeded plates were incubated overnight at 37° C.
On the day of the experiment, the Assay Buffer containing (a) HBSS with Ca^++ and Mg^++, (b) 20 mM HEPES, and (c) 0.1% BSA stabilizer (pH 7.4) was prepared. The growth medium was gently removed from the cell plates and 20 μL of Assay Buffer added to each well. The plate was then incubated at 37° C. for 60 min. Test compounds were serially diluted in Assay Buffer to desired concentrations (more particularly to one or more of the following μM concentrations: 25, 12.5, 6.25, 3.12, 1.56, 0.78, 0.39, 0.19, 0.10, 0.05, 0.02, 0.01). Five μL of compound dilution was then added to each well and the plate incubated at 37° C. for 90 min. The detection reagents were prepared according to the manufacture's instruction. Twelve μL of the detection reagents were added to each well and the plate incubated at room temperature for 60 min.
The plates were read on an EnVision instrument, using Protocol name: Luminescence, Plate type: 384 Costar, Measurement height: 3 mm, Measurement time: 1 s, Aperture: 384 Plate aperture. The % Activity relative to the positive control was calculated using the following equation:
The % Activity values were plotted versus the concentration of test compound and fitted to a sigmoidal dose-response curve with a Hill slope=1 (fixed value) using nonlinear regression with GraphPad Prism 5.0 to calculate the EC50 values. The Fitting Equation was: Y=Bottom+(Top-Bottom)/(1+10^((Log EC50−X)*HillSlope)), where X is the log of the concentration and Y is the response.

T1 sequence (O14842 whole entry): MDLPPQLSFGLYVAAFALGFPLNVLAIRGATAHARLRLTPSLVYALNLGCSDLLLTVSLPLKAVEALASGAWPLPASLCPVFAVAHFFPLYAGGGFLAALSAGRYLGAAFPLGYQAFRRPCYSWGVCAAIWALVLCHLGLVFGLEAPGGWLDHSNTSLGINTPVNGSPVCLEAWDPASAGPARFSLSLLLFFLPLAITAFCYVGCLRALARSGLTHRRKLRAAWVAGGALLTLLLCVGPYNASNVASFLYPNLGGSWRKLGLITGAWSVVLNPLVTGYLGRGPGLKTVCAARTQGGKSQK
T3 sequence (Q5NUL3 1-377 isoform Q5NUL3-1): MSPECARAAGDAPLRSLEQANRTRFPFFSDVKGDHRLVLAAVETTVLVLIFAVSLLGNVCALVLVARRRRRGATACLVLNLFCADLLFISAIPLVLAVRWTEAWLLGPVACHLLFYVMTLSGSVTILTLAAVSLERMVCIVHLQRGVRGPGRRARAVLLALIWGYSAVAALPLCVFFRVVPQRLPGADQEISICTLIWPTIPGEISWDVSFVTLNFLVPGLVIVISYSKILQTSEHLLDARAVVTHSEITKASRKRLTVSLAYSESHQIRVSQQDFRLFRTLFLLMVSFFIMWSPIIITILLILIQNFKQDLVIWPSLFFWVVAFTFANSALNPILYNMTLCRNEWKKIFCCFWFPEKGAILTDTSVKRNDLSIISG
T3 sequence (P32121 whole entry partner): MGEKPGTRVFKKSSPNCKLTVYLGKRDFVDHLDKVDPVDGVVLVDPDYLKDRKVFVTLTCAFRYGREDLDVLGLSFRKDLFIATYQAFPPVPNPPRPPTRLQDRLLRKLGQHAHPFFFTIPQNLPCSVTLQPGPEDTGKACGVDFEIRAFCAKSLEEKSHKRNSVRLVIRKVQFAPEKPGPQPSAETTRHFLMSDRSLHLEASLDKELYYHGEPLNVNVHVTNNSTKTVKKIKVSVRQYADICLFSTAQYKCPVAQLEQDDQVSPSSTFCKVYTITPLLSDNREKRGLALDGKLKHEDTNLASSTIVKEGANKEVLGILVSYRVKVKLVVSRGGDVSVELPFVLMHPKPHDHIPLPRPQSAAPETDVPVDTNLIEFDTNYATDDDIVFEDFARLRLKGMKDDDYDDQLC

For `O=C(O)CCc1ccc(OCC2=C(c3ccc(Cl)cc3)CCC2)c(Cl)c1Cl` [Compound 99, 3-[2,3-dichloro-4-[[2-(4-chlorophenyl)cyclopenten-1-yl]methoxy]phenyl]Propanoic Acid], the pEC50 in assay [1] was less than 5.30; in assay [2], 7.36; in assay [3], 6.83.
Turning to `Cc1c(CCC(=O)O)ccc(OCC2=C(c3ccc(F)cc3)CC(F)C2)c1C` (stereo not drawn) [Compound 100], the pEC50 in assay [1] is less than 5.30; in assay [2] it was 7.09; in assay [3], 6.77.
The corresponding values for `Cc1cc(CC(C)C(=O)O)ccc1OCC1=C(c2ccc(F)cc2)CCC1` (stereo not drawn) [Compound 160, 3-[4-[[2-(4-fluorophenyl)cyclopenten-1-yl]methoxy]-3-methyl-phenyl]-2-methyl-Propanoic Acid] are less than 5.30, 6.67 and 6.28.
In the case of `Cc1cc(CCC(=O)O)ccc1OCC1=C(c2ccc(Cl)cc2)CC(F)(F)C1` [Compound 166, 3-[4-[[2-(4-chlorophenyl)-4,4-difluoro-cyclopenten-1-yl]methoxy]-3-methyl-phenyl]Propanoic Acid], the pEC50 in assay [1] was 5.40; in assay [2], 7.62; in assay [3], 7.54.
The corresponding values for `CC(C)c1cc(OCC2=C(c3ccc(Cl)cc3)CCC2)ccc1CCC(=O)O` [Compound 167, 3-[4-[[2-(4-chlorophenyl)cyclopenten-1-yl]methoxy]-2-isopropyl-phenyl]Propanoic Acid] are 5.90, 6.30 and 6.14.
As for `Cc1ccc(C2=C(COc3ccc(CCC(=O)O)c(C)c3C)CC(F)(F)C2)cc1F` [Compound 172, 3-[4-[[4,4-difluoro-2-(3-fluoro-4-methyl-phenyl)cyclopenten-1-yl]methoxy]-2,3-dimethyl-phenyl]Propanoic Acid], the values for the pEC50 in assay [1], in assay [2] and in assay [3] were less than 5.30, 7.38 and 7.49, respectively.
As to `Cc1c(CCC(=O)O)ccc(OCC2=C(c3ccc(F)cc3F)CC(F)(F)C2)c1C` [Compound 173, 3-[4-[[2-(2,4-difluorophenyl)-4,4-difluoro-cyclopenten-1-yl]methoxy]-2,3-dimethyl-phenyl]Propanoic Acid], the pEC50 in assay [1] was less than 5.30; in assay [2] it was 7.31; in assay [3] it was 7.40.
Regarding `Cc1cc(CCC(=O)O)ccc1OCC1=C(c2ccc(F)c(F)c2)CC(F)(F)C1` [Compound 179, 3-[4-[[2-(3,4-difluorophenyl)-4,4-difluoro-cyclopenten-1-yl]methoxy]-3-methyl-phenyl]Propanoic Acid], the pEC50 in assay [1] was less than 5.30; in assay [2], 7.51; in assay [3], 6.54.
Turning to `Cc1cc(CCC(=O)O)ccc1OCC1=C(c2ccc(F)cc2)CC(F)(F)C1` [Compound 180, 3-[4-[[4,4-difluoro-2-(4-fluorophenyl)cyclopenten-1-yl]methoxy]-3-methyl-phenyl]Propanoic Acid], the pEC50 was less than 5.30 in assay [1], 7.59 in assay [2] and 7.11 in assay [3].
For `Cc1cc(CCC(=O)O)ccc1OCC1=C(c2ccc(F)cc2F)CC(F)(F)C1` [Compound 182, 3-[4-[[2-(2,4-difluorophenyl)-4,4-difluoro-cyclopenten-1-yl]methoxy]-3-methyl-phenyl]Propanoic Acid], the pEC50 in assay [1] is less than 5.30; in assay [2], 7.49; in assay [3], 6.98.
As to `O=C(O)CCc1cc(F)c(OCC2=C(c3ccc(F)cc3)CC(F)(F)C2)c(F)c1` [Compound 183, 3-[4-[[4,4-difluoro-2-(4-fluorophenyl)cyclopenten-1-yl]methoxy]-3,5-difluoro-phenyl]Propanoic Acid], the pEC50 is less than 5.30 in assay [1], 7.29 in assay [2] and 6.73 in assay [3].
Consider `O=C(O)CCc1cc(F)c(OCC2=C(c3ccc(F)c(F)c3)CC(F)(F)C2)c(F)c1` [Compound 184, 3-[4-[[2-(3,4-difluorophenyl)-4,4-difluoro-cyclopenten-1-yl]methoxy]-3,5-difluoro-phenyl]Propanoic Acid], for which the values for the negative logarithm of the EC50 (pEC50) in assay [1], in assay [2] and in assay [3] were less than 5.30, 7.04 and 6.37, respectively.
For the compound `N#CC1CC(COc2c(F)cc(CCC(=O)O)cc2F)=C(c2ccc(Cl)cc2)C1` (stereo not drawn) [Compound 185, 3-[4-[[2-(4-chlorophenyl)-4-cyano-cyclopenten-1-yl]methoxy]-3,5-difluoro-phenyl]Propanoic Acid], the pEC50 in assay [1] is 5.46; in assay [2], 6.44; in assay [3], 5.84.
On to `O=C(O)CCc1ccc(OCC2=C(c3ccc(F)cc3)CC(F)C2)cc1C(F)(F)F` (stereo not drawn) [Compound 186, 3-[4-[[4-fluoro-2-(4-fluorophenyl)cyclopenten-1-yl]methoxy]-2-(trifluoromethyl)phenyl]Propanoic Acid], for which the pEC50 is 6.42 in assay [1], 6.34 in assay [2] and 5.75 in assay [3].
With `COC1CC(COc2c(F)cc(CCC(=O)O)cc2F)=C(c2ccc(Cl)cc2)C1` (stereo not drawn) [Compound 187, 3-[4-[[2-(4-chlorophenyl)-4-methoxy-cyclopenten-1-yl]methoxy]-3,5-difluoro-phenyl]Propanoic Acid], the pEC50 was 5.48 in assay [1], 6.86 in assay [2] and 6.22 in assay [3].
Regarding `O=C(O)CCc1ccc(OCC2=C(c3ccc(F)cc3)CC(F)(F)C2)cc1C(F)(F)F` [Compound 188, 3-[4-[[4,4-difluoro-2-(4-fluorophenyl)cyclopenten-1-yl]methoxy]-2-(trifluoromethyl)phenyl]Propanoic Acid], the negative logarithm of the EC50 (pEC50) is 6.85 in assay [1], 6.39 in assay [2] and 6.26 in assay [3].
For `Cc1cc(CCC(=O)O)ccc1OCC1=C(c2cccc(F)c2)CC(F)(F)C1` [Compound 191, 3-[4-[[4,4-difluoro-2-(3-fluorophenyl)cyclopenten-1-yl]methoxy]-3-methyl-phenyl]Propanoic Acid] the same measures were less than 5.30, 7.57 and 6.59.
`Cc1cc(CCC(=O)O)ccc1OCC1=C(c2ccccc2)CC(F)(F)C1` [Compound 193, 3-[4-[(4,4-difluoro-2-phenyl-cyclopenten-1-yl)methoxy]-3-methyl-phenyl]Propanoic Acid]: the pEC50 is less than 5.30 in assay [1], 7.52 in assay [2] and 6.88 in assay [3].
For the compound `Cc1ncc(C2=C(COc3ccc(CCC(=O)O)cc3C)CC(F)(F)C2)s1` [Compound 199, 3-[4-[[4,4-difluoro-2-(2-methylthiazol-5-yl)cyclopenten-1-yl]methoxy]-3-methyl-phenyl]Propanoic Acid], the pEC50 in assay [1] is 5.83; in assay [2], 6.68; in assay [3], 6.43.
